In patent publication US20180271870A1, “Compositions and Methods for Immune Therapy” (Augusta University Research Institute, Inc., priority 2014, published 2018):

How the values were obtained:
CD8 T cells [1] = experiment: Phenotyping of gp100-stimulated pMel-1 CD8 T cells by flow cytometry; assay type: cell-based, mouse; settings: for percentage of naïve cells (CD62LhiCD44lo) versus non-treated: after 3 days of stimulation; for up-regulation of exhaustion marker KLRG-1 in CD8 T cells: after the second and third stimulations; for CD62L expression in CD8 T cells / CD127 expression in CD8 T cells: day 3 and/or day 7 after each stimulation with gp100; for reservoir of TCM cells after repeated stimulation: day 7 after each stimulation, MK-2206 0.67 μM, Akt 1/2 inhibitor 2.2 μM; for percentage of CD8 T cells with TCM phenotype (CD62LhiCD44hi): pMel-1 splenocytes, gp100 25-33 1 μM, representative example, gated viable CD8+Vβ13+
Experimental: Tumor antigen-specific CD8 T cells Unfractionated splenocytes from pMel-1 mice were homogenized and stimulated in vitro by gp10025-33 peptide at a 1 μM/ml concentration (day 0). Cells were cultured in RPMI 1640 (Lonza, Allendale, N.J.) supplemented with 10% FBS, penicillin (100 U/mL), streptomycin ([…]), 0.1% β-mercaptoethanol (Life Technologies, Invitrogen, Carlsbad, Calif.) and IL-2 (100 U/ml) (Peprotech, Rocky Hill, N.J.) at 37° C. with 5% CO2. […]. The concentration of the inhibitors was maintained throughout the culture by changing the media every 48-72 hours.
On Days 7, 14 and 21, cells were re-stimulated with gp10025-33 peptide at a 1 μM/ml concentration using feeder cells (irradiated WT splenocytes, 4000 Rads) at 1:1 ratio using the same culture conditions.
To assess the phenotype of the T cells, the cultured cells were harvested and analyzed on days 3, 7, 14 and 21. The cells were stained with APC-Cy7 labeled anti-CD8, FITC labeled anti-Vβ13, PE labeled anti-CD62L, APC labeled anti-CD44, PE-CF594 labeled anti-CD127, APC labeled anti-KLRG-1 in addition to the viability stain 7AAD (BD Biosciences, San Jose, Calif.). The same APC-Cy7 labeled anti-CD8 was used for sorting the cells using the FACS ARIA II (BD Biosciences, San Jose, Calif.).
For proliferation and phenotyping, the analyses were performed on CD8 T cells specific for the gp100 antigen and were gated on viable (7AAD−), Vβ13+CD8+ T cells. For WT and KO cells, the cells were gated on viable (7AAD−), CD8+ T cells.

CD8 T cells [2] = experiment: Proliferation assay (VCT dye dilution / expansion) of gp100-stimulated pMel-1 CD8 T cells; assay type: cell-based, mouse; settings: for proliferation of CD8 T cells (VCT dilution): day 3 after first stimulation; for expansion of CD8 T cells with further stimulations: re-stimulation days 7, 14, 21, normalized to non-treated control
Experimental: Prior to their stimulation (day 0), cells were labeled with 5 μM Violet Cell Trace (VCT) proliferation dye (Life Technologies, Invitrogen, Carlsbad, Calif.) following the manufacturers' instructions. Samples were then evaluated for CD8 T cell expansion via VCT dye dilution (day 3) using an LSRII SORP with HTS Flow Cytometer (BD Biosciences, San Jose, Calif.). The data were analyzed using FlowJo 9 or 10 (Tree Star).

CD8 T cells [3] = experiment: Cytometric bead array of cytokine secretion by re-stimulated pMel-1 CD8 T cells; assay type: cell-based, mouse; settings: for IL-2 secretion: re-stimulated CD8 T cells; for IFNγ secretion with further stimulations / TNF secretion with further stimulations: supernatant after 24 hours, CBA
Experimental: Following the same activation protocol mentioned above, the pMel-1 gp100-specific CD8 T cells were harvested on day 7 after the first and second stimulation. The viable cells (trypan blue negative) were then counted and co-incubated (at 1:1 ratio) with 1 μM/ml gp10025-33 pulsated irradiated splenocytes (4000 Rads) for 24 hours using the same culture conditions. The supernatant was collected and the level of IL-2, TNF and IFN-γ was assessed using the mouse Th1/Th2/Th17 Cytokine Kit BD™ Cytometric Bead Array (CBA) kit. The data was collected using an LSRII SORP with HTS flow cytometer (BD Biosciences, San Jose, Calif.), and analyzed using the FCAP Array Software v3.0 (BD Biosciences, San Jose, Calif.).

CD8 T cells [4] = experiment: Phenotype of anti-CD3/anti-CD28 stimulated CD8 T cells from WT and Akt KO mice; assay type: cell-based, mouse; settings: day 7; anti-CD3 (1 ng/ml) + anti-CD28; MK-2206 0.67 μM, Akt 1/2 inhibitor 2.2 μM
Experimental: The cells were then stimulated using feeder cells (irradiated WT splenocytes, 4000 Rads) at 1:1 ratio (day 0) using TCR stimulation ([…], BD Biosciences, San Jose, Calif.) and co-stimulation (anti-CD28 antibody 2.5 μg/ml BD Biosciences, San Jose, Calif.) in the presence of 100 U/ml IL-2 (Peprotech, Rocky Hill, N.J.). […] Cells were cultured in the same conditions described above. To assess the phenotype of the T cells, the cultured cells were harvested and analyzed on days 3, 7, 14 and 21. The cells were stained with APC-Cy7 labeled anti-CD8, FITC labeled anti-Vβ13, PE labeled anti-CD62L, APC labeled anti-CD44, PE-CF594 labeled anti-CD127, APC labeled anti-KLRG-1 in addition to the viability stain 7AAD (BD Biosciences, San Jose, Calif.). The same APC-Cy7 labeled anti-CD8 was used for sorting the cells using the FACS ARIA II (BD Biosciences, San Jose, Calif.). For proliferation and phenotyping, the analyses were performed on CD8 T cells specific for the gp100 antigen and were gated on viable (7AAD−), Vβ13+CD8+ T cells. For WT and KO cells, the cells were gated on viable (7AAD−), CD8+ T cells.

[5] = intermittent dosing schedule of 480 mg twice a day; cited from earlier work
[6] = tested on: 250 other protein kinases; settings: cited from earlier work
[7] = cited from earlier work

Compound	percentage of naïve cells (CD62LhiCD44lo) versus non-treated (CD8 T cells [1])	up-regulation of exhaustion marker KLRG-1 in CD8 T cells (CD8 T cells [1])	CD62L expression in CD8 T cells (CD8 T cells [1])	CD127 expression in CD8 T cells (CD8 T cells [1])	reservoir of TCM cells after repeated stimulation (CD8 T cells [1])	percentage of CD8 T cells with TCM phenotype (CD62LhiCD44hi) (CD8 T cells [1]) [%]	proliferation of CD8 T cells (VCT dilution) (CD8 T cells [2])	expansion of CD8 T cells with further stimulations (CD8 T cells [2])	IL-2 secretion (CD8 T cells [3])	IFNγ secretion with further stimulations (CD8 T cells [3])	TNF secretion with further stimulations (CD8 T cells [3])	TCM cells in CD8 T cells from Akt1 KO mice (CD8 T cells [4])	TCM cells in CD8 T cells from Akt2 KO mice (CD8 T cells [4])	TCM cells in CD8 T cells from Akt3 KO mice (CD8 T cells [4])	phenotype of CD8 T cells from WT mice (CD8 T cells [4])	other results
O.O=C(O)C(F)(F)F.O=c1[nH]c2ccccc2n1C1CCN(Cc2ccc(-c3nc4cc5[nH]cnc5cc4nc3-c3ccccc3)cc2)CC1 [Akt 1/2 inhibitor, 1,3-Dihydro-1-(1-((4-(6-phenyl-1H-imidazo[4,5-g]quinoxalin-7-yl)phenyl)methyl)-4-piperidinyl)-2H-benzimidazol-2-one trifluoroacetate salt hydrate]	higher percentage	mitigates the up-regulation	maintains a high level	maintains a high level	a high percentage was preserved	76	inhibited in a dose-dependent manner	significantly enhanced	high secretion levels	preserved high levels	preserved high levels	more TCM cells	maintains a significantly higher percentage of TCM cells	maintains a significantly higher percentage of TCM cells	consist mainly of TCM cells	
NC1(C(=O)N[C@@H](CCO)c2ccc(Cl)cc2)CCN(c2ncnc3[nH]ccc23)CC1 [AZD5363]		inhibits the up-regulation	maintains a high level	maintains a high level		91		enhanced the proliferation								tolerability [5]: generally well tolerated
NC1(c2ccc(-c3nc4ccn5c(=O)[nH]nc5c4cc3-c3ccccc3)cc2)CCC1 [MK-2206]	higher percentage	inhibits the up-regulation	maintains a high level	maintains high levels	a high percentage was preserved	65	inhibited in a dose-dependent manner	expand at a significantly high rate	significantly higher levels	maintain their ability to secrete IFNγ	significantly higher levels	more TCM cells	maintains a significantly higher percentage of TCM cells	maintains a significantly higher percentage of TCM cells	consist mainly of TCM cells	IFN-γ production after the second stimulation versus non-treated (CD8 T cells [3]; 24 hours after re-stimulation): high and comparable levels; IFN-γ secretion after the third stimulation versus non-treated (CD8 T cells [3]; 24 hours after re-stimulation): maintained at a significantly higher level; TNF production after the second stimulation versus non-treated (CD8 T cells [3]; 24 hours after re-stimulation): high and comparable levels; TNF secretion after the third stimulation versus non-treated (CD8 T cells [3]; 24 hours after re-stimulation): maintained at a significantly higher level; inhibitory activities against 250 other protein kinases [6]: no inhibitory activities; dose-limiting toxicities ([7]; 30, 60, 75 or 90 mg on alternate days): skin rash and stomatitis; MTD ([7]; oral, alternate days, patients with advanced solid tumors): 60 mg
